Measurements taken from ChEMBL document CHEMBL4823252 (J Med Chem, 2021).
Activity calls are given as the source filed them. The calls are words filed in the database; no cut-off is given here.

What was measured:
[1] = test system: MV4-11; test: Induction of cell cycle arrest in human MV4-11 cells assessed as accumulation at S phase at 1 nM incubated for 24 hrs by flow cytometry (reference value: 16.31%); format: functional
[2] = test system: MOLM-13; test: Induction of apoptosis in human MOLM-13 cells assessed as necrotic cells at 100 nM incubated for 24 hrs by flow cytometry (reference value: 0.45%); format: functional
[3] = test system: MOLM-13; test: Induction of apoptosis in human MOLM-13 cells assessed as late apoptotic cells at 1 nM incubated for 24 hrs by flow cytometry (reference value: 4.54%); format: functional
[4] = test system: MOLM-13; test: Antiproliferative activity against human quizartinib-resistant MOLM-13 cells at 1000 nM incubated for 72 hrs by CCK8 assay relative to control; format: functional
[5] = test system: MOLM-13; test: Induction of cell cycle arrest in human MOLM-13 cells assessed as accumulation at G1 phase at 1 nM incubated for 24 hrs by flow cytometry (reference value: 69.08%); format: functional
[6] = test system: MOLM-13; test: Antiproliferative activity against human MOLM-13 cells incubated for 72 hrs by Cell Counting Kit-8 assay; format: functional, cell-based; details: MOLM-13, 72 h
[7] = test system: MOLM-13; test: Antiproliferative activity against human sunitinib-resistant MOLM-13 cells at 333 nM incubated for 72 hrs by CCK8 assay relative to control; format: functional
[8] = test system: MOLM-13; test: Induction of cell cycle arrest in human MOLM-13 cells assessed as accumulation at G1 phase at 10 nM incubated for 24 hrs by flow cytometry (reference value: 69.08%); format: functional
[9] = test system: MOLM-13; test: Antiproliferative activity against human quizartinib-resistant MOLM-13 cells at 111 nM incubated for 72 hrs by CCK8 assay relative to control; format: functional
[10] = Toxicity in mouse xenografted with human MOLM-13 cells assessed as induction of cytoplasmic condensation at 40 mg/kg, po administered for 20 days by hematoxylin and eosin staining assay; format: organism-based; details: in vivo, 480 h, time 20 day
[11] = test system: MOLM-13; test: Induction of apoptosis in human MOLM-13 cells assessed as viable cells at 1 nM incubated for 24 hrs by flow cytometry (reference value: 92.83%); format: functional; details: read-out: Activity
[12] = test system: MV4-11; test: Induction of apoptosis in human MV4-11 cells assessed as viable cells at 1 nM incubated for 24 hrs by flow cytometry (reference value: 98.26%); format: functional; details: read-out: Activity
[13] = test system: MV4-11; test: Antiproliferative activity against human MV4-11 cells incubated for 72 hrs by Cell Counting Kit-8 assay; format: functional, cell-based; details: MV4-11, 72 h
[14] = test system: MOLM-13; test: Antiproliferative activity against human sunitinib-resistant MOLM-13 cells at 4 nM incubated for 72 hrs by CCK8 assay relative to control; format: functional
[15] = test system: MV4-11; test: Induction of apoptosis in human MV4-11 cells assessed as necrotic cells at 1 nM incubated for 24 hrs by flow cytometry (reference value: 0.25%); format: functional
[16] = Half life in Sprague-Dawley rat at 10 mg/kg, po; format: ADME, organism-based; details: in vivo
[17] = test system: MOLM-13; test: Induction of apoptosis in human MOLM-13 cells incubated for 24 hrs by flow cytometry; format: functional, cell-based
[18] = test system: MOLM-13; test: Induction of cell cycle arrest in human MOLM-13 cells assessed as accumulation at S phase at 100 nM incubated for 24 hrs by flow cytometry (reference value: 16.28%); format: functional
[19] = biological target: Mast/stem cell growth factor receptor Kit (Homo sapiens, UniProt P10721); test: Inhibition of c-KIT (unknown origin) incubated for 30 mins in presence of ATP by mobility shift assay
[20] = test system: Receptor-type tyrosine-protein kinase FLT3 (Homo sapiens), P36888 [D835V]; test: Binding affinity to FLT3 D835V mutant (unknown origin) at 1000 nM relative to control
[21] = Cmax in Sprague-Dawley rat at 10 mg/kg, po; format: ADME, organism-based; design: route oral, dose 10 mg/kg; details: in vivo
[22] = biological target: Receptor-type tyrosine-protein kinase FLT3 (Homo sapiens) (UniProt P36888); test: Inhibition of FLT3 in human MOLM-13 cells assessed as reduction in ERK phosphorylation incubated for 2 hrs by Western blot analysis; format: cell-based
[23] = test system: KG-1; test: Antiproliferative activity against human KG1 cells measured after 72 hrs by CCK8 assay; format: functional, cell-based; details: KG-1, 72 h
[24] = biological target: T1, Receptor-type tyrosine-protein kinase FLT3 (Homo sapiens, UniProt P36888); test: Inhibition of FLT3 (unknown origin) incubated for 30 mins in presence of ATP by mobility shift assay
T1 sequence (P36888 whole entry): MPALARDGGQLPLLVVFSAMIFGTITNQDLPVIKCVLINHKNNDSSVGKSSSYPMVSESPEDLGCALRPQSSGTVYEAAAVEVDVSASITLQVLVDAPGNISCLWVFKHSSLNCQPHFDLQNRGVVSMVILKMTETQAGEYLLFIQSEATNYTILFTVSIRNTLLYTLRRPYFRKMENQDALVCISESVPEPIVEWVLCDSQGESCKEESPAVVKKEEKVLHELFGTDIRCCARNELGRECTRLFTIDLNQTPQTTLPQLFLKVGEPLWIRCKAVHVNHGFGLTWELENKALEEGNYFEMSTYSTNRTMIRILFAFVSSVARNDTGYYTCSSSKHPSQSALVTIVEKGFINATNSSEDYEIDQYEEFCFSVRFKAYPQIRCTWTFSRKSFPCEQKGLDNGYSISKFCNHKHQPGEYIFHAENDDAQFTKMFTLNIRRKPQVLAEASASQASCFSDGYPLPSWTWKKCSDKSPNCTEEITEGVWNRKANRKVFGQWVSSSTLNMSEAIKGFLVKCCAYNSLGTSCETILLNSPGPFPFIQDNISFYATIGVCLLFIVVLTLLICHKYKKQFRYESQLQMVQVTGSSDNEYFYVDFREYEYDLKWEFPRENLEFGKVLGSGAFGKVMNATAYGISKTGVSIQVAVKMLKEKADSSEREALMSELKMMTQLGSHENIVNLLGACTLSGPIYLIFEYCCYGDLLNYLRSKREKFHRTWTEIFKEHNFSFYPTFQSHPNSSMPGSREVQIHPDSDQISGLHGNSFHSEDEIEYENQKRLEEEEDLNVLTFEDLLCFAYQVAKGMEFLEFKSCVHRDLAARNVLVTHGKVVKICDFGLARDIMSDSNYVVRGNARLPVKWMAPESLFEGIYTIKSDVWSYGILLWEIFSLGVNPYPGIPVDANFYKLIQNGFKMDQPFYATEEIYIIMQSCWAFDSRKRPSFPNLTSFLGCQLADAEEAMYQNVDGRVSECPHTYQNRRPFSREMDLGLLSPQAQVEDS

[25] = test system: Receptor-type tyrosine-protein kinase FLT3 (Homo sapiens), P36888 [N841I]; test: Binding affinity to FLT3 N841I mutant (unknown origin) at 1000 nM relative to control
[26] = test system: Receptor-type tyrosine-protein kinase FLT3 (Homo sapiens), P36888 [UNDEFINED MUTATION]; test: Binding affinity to FLT3 ITD mutant (unknown origin) at 1000 nM relative to control
[27] = Toxicity in mouse xenografted with human MOLM-13 cells assessed as effect on liver at 10 to 40 mg/kg, po administered for 20 days by hematoxylin and eosin staining assay; format: organism-based; details: in vivo, 480 h, dose 10-40 mg/kg, time 20 day

Chain of Mast/stem cell growth factor receptor Kit (P10721 whole entry): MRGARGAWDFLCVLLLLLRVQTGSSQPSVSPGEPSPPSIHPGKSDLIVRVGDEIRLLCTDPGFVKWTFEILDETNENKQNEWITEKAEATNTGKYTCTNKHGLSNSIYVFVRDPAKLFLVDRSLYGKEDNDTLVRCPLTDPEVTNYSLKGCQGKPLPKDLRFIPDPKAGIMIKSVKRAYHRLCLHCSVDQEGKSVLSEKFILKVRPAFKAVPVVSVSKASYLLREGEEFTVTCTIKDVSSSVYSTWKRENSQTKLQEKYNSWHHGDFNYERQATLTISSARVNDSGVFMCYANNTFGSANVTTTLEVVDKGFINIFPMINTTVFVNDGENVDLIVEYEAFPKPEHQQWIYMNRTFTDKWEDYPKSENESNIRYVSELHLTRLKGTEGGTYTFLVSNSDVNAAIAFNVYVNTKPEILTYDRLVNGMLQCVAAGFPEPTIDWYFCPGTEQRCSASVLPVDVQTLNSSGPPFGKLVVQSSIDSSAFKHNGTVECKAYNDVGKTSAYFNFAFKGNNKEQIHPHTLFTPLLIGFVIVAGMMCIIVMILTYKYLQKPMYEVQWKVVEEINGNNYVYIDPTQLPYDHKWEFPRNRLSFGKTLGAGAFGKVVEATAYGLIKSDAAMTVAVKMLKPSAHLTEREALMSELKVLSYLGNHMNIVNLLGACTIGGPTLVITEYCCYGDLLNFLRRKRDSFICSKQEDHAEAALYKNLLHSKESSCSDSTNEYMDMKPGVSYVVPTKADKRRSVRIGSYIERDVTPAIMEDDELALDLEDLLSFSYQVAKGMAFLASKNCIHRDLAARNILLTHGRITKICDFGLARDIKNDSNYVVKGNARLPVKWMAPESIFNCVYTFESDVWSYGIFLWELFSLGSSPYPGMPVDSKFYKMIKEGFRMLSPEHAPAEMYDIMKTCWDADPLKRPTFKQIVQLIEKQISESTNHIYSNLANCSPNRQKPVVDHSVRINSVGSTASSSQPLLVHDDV

IC50 [6] | IC50 [13] | Structure (SMILES) | Activity [1] | Activity [2] | Activity [3] | Activity [4] | Activity [5] | Activity [7] | Activity [8] | Activity [9] | viability at 0.001 µM [11] | viability at 0.001 µM [12] | Activity [14] | Activity [15] | further results
69.6 nM | 31.5 nM | CCN(CC)CCNC(=O)c1c(C)[nH]c(/C=C2\C(=O)Nc3ccc(F)cc32)c1C [SUNITINIB] | 13.27% | 1.14% | 3.32% | 26.6% | 65.44% | 6.3% | 63.75% | 0.5% | 92.5% | 98.4% | 0.9% | 0.32% | Activity [10]: Toxic
35.5 nM | 23.5 nM | Cc1c(NC(=O)CCN2CCCC2)c[nH]c1/C=C1\C(=O)Nc2ccc(F)cc21 | 11.6% | 0.75% | 4.3% | 60.3% | 68.95% | 18.6% | 59.1% | 2.9% | 91.8% | 97.2% | 3.3% | 1.38% | half-life [16]: 6.1 h; Activity [17]: Dose-Dependent Effect; Activity [18]: 4.16%; IC50 [19]: > 1000 nM; Activity [20]: Active; Cmax [21]: 1880 ng/mL; Activity [22]: Dose-Dependent Effect; IC50 [23]: 1100 nM; IC50 [24]: 1.8 nM; Activity [25]: Active; Activity [26]: Active; Activity [27]: Non-Toxic
